This note sets out measurements from paper PMC2950902 (Molecular Microbiology, 2010).

For assay [1], the target named is T1, P1 ParA (Escherichia coli, UniProt P07620).
T1 sequence (P07620 1-398): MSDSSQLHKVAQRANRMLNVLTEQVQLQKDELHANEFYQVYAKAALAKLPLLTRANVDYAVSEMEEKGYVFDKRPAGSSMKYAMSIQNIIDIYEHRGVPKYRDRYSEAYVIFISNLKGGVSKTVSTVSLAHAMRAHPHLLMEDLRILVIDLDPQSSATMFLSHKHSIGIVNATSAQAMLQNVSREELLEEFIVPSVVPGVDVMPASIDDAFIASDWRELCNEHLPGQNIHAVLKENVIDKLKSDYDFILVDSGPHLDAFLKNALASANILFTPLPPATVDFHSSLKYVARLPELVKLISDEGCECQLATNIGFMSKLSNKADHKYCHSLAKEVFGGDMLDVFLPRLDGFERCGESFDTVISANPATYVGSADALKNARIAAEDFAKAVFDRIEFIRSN
Put plainly: MANT-nucleotide fluorescence. It counts as binding. The conditions noted are these: unlabelled ADP.

The target of assay [2] is T1, P1 ParA. Put plainly: tryptophan fluorescence change. It counts as binding. The conditions noted are these: 1 mM nucleotide, Mg2+, 23°C.

Regarding `Nc1ncnc2c1ncn2[C@@H]1O[C@H](COP(=O)(O)OP(=O)(O)O)[C@@H](O)[C@H]1O` [ADP], the “apparent Kd” value on P1 ParA [1] is listed as “MANT-ADP bound ParA with similar affinity as ADP”.

Take `Nc1ncnc2c1ncn2[C@@H]1O[C@H](COP(=O)(O)OP(=O)(O)OP(O)(O)=S)[C@@H](O)[C@H]1O` [ATPγS]: the tryptophan fluorescence change result on P1 ParA [2] is “ADP and ATPγS induced a small but reproducible increase in fluorescence”.
